# Several values for one entry are separate records, joined by “and”; a condition that tells them apart may be missing. Identical values can stand only once. Toxic doses and inconclusive results are not listed.
# Test system: P388 leukemia ip, CD2F1 mice, survival T/C
# Test: NCI In Vivo Anticancer Drug Screen. Data for tumor model P388 Leukemia (intraperitoneal) in CD2F1 (CDF1) mice
# Conditions: endpoint: median survival time, higher = longer survival
# In short: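 Mice carrying the transplanted tumor received test compound or vehicle. Survival was recorded in each group, and the value is the treated-group measurement divided by that of the vehicle-treated control group.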
# [1] = dose: 25.0 mg/kg/injection, schedule: Q01DX009 (ip), vehicle: Klucel (hydroxypropylcellulose) (HPC)
# [2] = dose: 100.0 mg/kg/injection, schedule: Q01DX001 (ip), vehicle: Klucel (hydroxypropylcellulose) (HPC)
# [3] = dose: 200.0 mg/kg/injection, schedule: Q01DX001 (ip), vehicle: Klucel (hydroxypropylcellulose) (HPC)
# [4] = dose: 100.0 mg/kg/injection, schedule: Q04DX003 (ip), vehicle: saline with Tween-80
# [5] = dose: 100.0 mg/kg/injection, schedule: Q04DX003 (ip), vehicle: saline
# [6] = dose: 200.0 mg/kg/injection, schedule: Q04DX003 (ip), vehicle: saline
# [7] = dose: 400.0 mg/kg/injection, schedule: Q04DX003 (ip), vehicle: saline
# [8] = dose: 60.0 mg/kg/injection, schedule: Q01DX005 (ip), vehicle: Klucel (hydroxypropylcellulose) (HPC)
# [9] = dose: 120.0 mg/kg/injection, schedule: Q01DX005 (ip), vehicle: Klucel (hydroxypropylcellulose) (HPC)
# [10] = dose: 240.0 mg/kg/injection, schedule: Q01DX005 (ip), vehicle: Klucel (hydroxypropylcellulose) (HPC)
# [11] = dose: 240.0 mg/kg/injection, schedule: Q01DX005 (ip), vehicle: saline with Tween-80
# [12] = dose: 50.0 mg/kg/injection, schedule: Q01DX009 (ip), vehicle: saline with Tween-80
# [13] = dose: 100.0 mg/kg/injection, schedule: Q01DX009 (ip), vehicle: saline with Tween-80
# [14] = dose: 200.0 mg/kg/injection, schedule: Q01DX009 (ip), vehicle: saline with Tween-80
# [15] = dose: 50.0 mg/kg/injection, schedule: Q01DX009 (ip), vehicle: Klucel (hydroxypropylcellulose) (HPC)
# [16] = dose: 100.0 mg/kg/injection, schedule: Q01DX009 (ip), vehicle: Klucel (hydroxypropylcellulose) (HPC)
# [17] = dose: 200.0 mg/kg/injection, schedule: Q01DX009 (ip), vehicle: Klucel (hydroxypropylcellulose) (HPC)
compound,measurement,setting,value
CC(/C=C/C(=O)NO)=C\C(C)C(=O)c1ccc(N(C)C)cc1 (stereo not drawn),T/C,"dose: 2.19 mg/kg/injection, schedule: Q01DX009 (ip), vehicle: Klucel (hydroxypropylcellulose) (HPC)",107 % of control
same,T/C,"dose: 4.38 mg/kg/injection, schedule: Q01DX009 (ip), vehicle: Klucel (hydroxypropylcellulose) (HPC)",114 % of control
same,T/C,"dose: 8.75 mg/kg/injection, schedule: Q01DX009 (ip), vehicle: Klucel (hydroxypropylcellulose) (HPC)",122 % of control and 96 % of control
same,T/C,"dose: 8.75 mg/kg/injection, schedule: Q01DX009 (ip), vehicle: saline with Tween-80",152 % of control
same,T/C,"dose: 17.5 mg/kg/injection, schedule: Q01DX009 (ip), vehicle: Klucel (hydroxypropylcellulose) (HPC)",91 % of control
same,T/C,"dose: 17.5 mg/kg/injection, schedule: Q01DX009 (ip), vehicle: saline with Tween-80",90 % of control
O=C(O)c1cc[c]([Hg][S]c2ncnc3nc[nH]c23)cc1,T/C,"dose: 1.56 mg/kg/injection, schedule: Q01DX009 (ip), vehicle: saline with Tween-80",106 % of control
same,T/C,"dose: 3.13 mg/kg/injection, schedule: Q01DX009 (ip), vehicle: saline with Tween-80",110 % of control and 123 % of control
same,T/C,"dose: 6.25 mg/kg/injection, schedule: Q01DX009 (ip), vehicle: saline with Tween-80",100 % of control
same,T/C,"dose: 12.5 mg/kg/injection, schedule: Q01DX009 (ip), vehicle: saline with Tween-80",100 % of control
same,T/C,[1],121 % of control
Cc1ccc(OP(=O)(Oc2ccc(C)cc2)Oc2ccc(C)cc2)cc1.Cc1ccc(OP(=O)(Oc2ccc(C)cc2)Oc2ccc(C)cc2)cc1.Cc1ccc(OP(=O)(Oc2ccc(C)cc2)Oc2ccc(C)cc2)cc1.Cc1ccc(OP(=O)(Oc2ccc(C)cc2)Oc2ccc(C)cc2)cc1.[Fe+2].[O-][Cl+3]([O-])([O-])O,T/C,"dose: 50.0 mg/kg/injection, schedule: Q01DX001 (ip), vehicle: Klucel (hydroxypropylcellulose) (HPC)",99 % of control
same,T/C,[2],96 % of control
same,T/C,[3],99 % of control
OC(Cc1nc2ccccc2s1)(C(F)(F)F)C(F)(F)F,T/C,[4],100 % of control
same,T/C,"dose: 200.0 mg/kg/injection, schedule: Q04DX003 (ip), vehicle: saline with Tween-80",95 % of control
same,T/C,"dose: 400.0 mg/kg/injection, schedule: Q04DX003 (ip), vehicle: saline with Tween-80",95 % of control
O=C(NCCCCCCNC(=O)OCOC(=O)NCCCCCCNC(=O)Nc1ccc(SCCO)cc1)Nc1ccc(SCCO)cc1,T/C,[5],102 % of control
same,T/C,[6],102 % of control
same,T/C,[7],99 % of control
COC(=O)/C=C/c1cc(=O)nc2sc3ccccc3n12,T/C,[8],93 % of control
same,T/C,[9],93 % of control
same,T/C,[10],94 % of control
COc1ccc(NC(=O)Nc2ccc(NC(C)=O)cc2)c(OC)c1,T/C,"dose: 15.0 mg/kg/injection, schedule: Q01DX005 (ip), vehicle: saline with Tween-80",93 % of control
same,T/C,"dose: 30.0 mg/kg/injection, schedule: Q01DX005 (ip), vehicle: saline with Tween-80",92 % of control
same,T/C,"dose: 60.0 mg/kg/injection, schedule: Q01DX005 (ip), vehicle: saline with Tween-80",86 % of control
same,T/C,[11],88 % of control
O=C1c2cc3c(-c4ccccc4)sc(-c4ccccc4)c3cc2C(=O)c2c(O)ccc(O)c21,T/C,"dose: 12.5 mg/kg/injection, schedule: Q04DX002 (ip), vehicle: saline with Tween-80",90 % of control
same,T/C,"dose: 25.0 mg/kg/injection, schedule: Q04DX002 (ip), vehicle: saline with Tween-80",91 % of control
same,T/C,"dose: 50.0 mg/kg/injection, schedule: Q04DX002 (ip), vehicle: saline with Tween-80",98 % of control and 88 % of control
CCCCCCN(CCCCCC)c1nsc(Cl)n1,T/C,"dose: 40.0 mg/kg/injection, schedule: Q01DX009 (ip), vehicle: saline with Tween-80",105 % of control
same,T/C,"dose: 80.0 mg/kg/injection, schedule: Q01DX009 (ip), vehicle: saline with Tween-80",108 % of control
same,T/C,"dose: 160.0 mg/kg/injection, schedule: Q01DX009 (ip), vehicle: saline with Tween-80",111 % of control
Nc1nc(Sc2ccccn2)ccc1[N+](=O)[O-],T/C,[12],91 % of control
same,T/C,[13],91 % of control
same,T/C,[14],102 % of control
C=C(C)c1nc(N)nc(N2CCCCC2)n1,T/C,"dose: 50.0 mg/kg/injection, schedule: Q01DX005 (ip), vehicle: Klucel (hydroxypropylcellulose) (HPC)",98 % of control
same,T/C,"dose: 100.0 mg/kg/injection, schedule: Q01DX005 (ip), vehicle: Klucel (hydroxypropylcellulose) (HPC)",102 % of control
same,T/C,"dose: 200.0 mg/kg/injection, schedule: Q01DX005 (ip), vehicle: Klucel (hydroxypropylcellulose) (HPC)",117 % of control
COc1cc(C(=O)CC(=O)Cc2ccc3ccccc3n2)cc(OC)c1OC,T/C,"dose: 0.93 mg/kg/injection, schedule: Q01DX005 (ip), vehicle: saline with Tween-80",102 % of control
same,T/C,"dose: 1.88 mg/kg/injection, schedule: Q01DX005 (ip), vehicle: saline with Tween-80",103 % of control
same,T/C,"dose: 3.75 mg/kg/injection, schedule: Q01DX005 (ip), vehicle: saline with Tween-80",98 % of control
same,T/C,"dose: 120.0 mg/kg/injection, schedule: Q01DX005 (ip), vehicle: saline with Tween-80",90 % of control
same,T/C,[11],97 % of control
CCNc1ccc(/C=C2\C=Cc3ccccc32)cc1,T/C,[1],110 % of control
CCOc1nc(C(=O)O)cc2ccsc12,T/C,[2],90 % of control
same,T/C,[3],94 % of control
same,T/C,"dose: 400.0 mg/kg/injection, schedule: Q01DX001 (ip), vehicle: Klucel (hydroxypropylcellulose) (HPC)",96 % of control
COc1ccc(Cl)c2c(=O)c3ccc4c(c3[nH]c12)C(=O)c1ccccc1C4=O,T/C,[8],96 % of control
same,T/C,[9],91 % of control
same,T/C,[10],86 % of control
C[N+](C)(C)CCc1ccc2ccccc2c1,T/C,"dose: 25.0 mg/kg/injection, schedule: Q04DX002 (ip), vehicle: saline + alcohol",96 % of control
same,T/C,"dose: 50.0 mg/kg/injection, schedule: Q04DX002 (ip), vehicle: saline + alcohol",92 % of control
same,T/C,"dose: 100.0 mg/kg/injection, schedule: Q04DX002 (ip), vehicle: saline + alcohol",106 % of control and 108 % of control
C/C(=C\c1ccccc1)C1C(C#N)C(=O)NC(=O)C1C#N (stereo not drawn),T/C,[15],101 % of control
same,T/C,[16],105 % of control
same,T/C,[17],106 % of control
CC1(C)OC(=O)C=C1Sc1ccccc1,T/C,"dose: 50.0 mg/kg/injection, schedule: Q01DX005 (ip), vehicle: saline with Tween-80",100 % of control
same,T/C,"dose: 100.0 mg/kg/injection, schedule: Q01DX005 (ip), vehicle: saline with Tween-80",105 % of control
same,T/C,"dose: 200.0 mg/kg/injection, schedule: Q01DX005 (ip), vehicle: saline with Tween-80",105 % of control
CN(C)CC(OCCc1ccccc1)C(Cl)(Cl)Cl (stereo not drawn),T/C,[15],107 % of control
same,T/C,[16],109 % of control
same,T/C,[17],109 % of control
CO/C=C1\CC(=O)N(c2cccc([N+](=O)[O-])c2)C1=O,T/C,"dose: 25.0 mg/kg/injection, schedule: Q04DX003 (ip), vehicle: saline",97 % of control
same,T/C,"dose: 50.0 mg/kg/injection, schedule: Q04DX003 (ip), vehicle: saline",96 % of control
same,T/C,[5],94 % of control and 96 % of control
same,T/C,[6],90 % of control
same,T/C,[7],97 % of control
c1cc2nc(-c3ccc4nc(C5=NCCN5)[nH]c4c3)[nH]c2cc1C1=NCCN1,T/C,"dose: 12.5 mg/kg/injection, schedule: Q01DX005 (ip), vehicle: saline",90 % of control
same,T/C,"dose: 25.0 mg/kg/injection, schedule: Q01DX005 (ip), vehicle: saline",87 % of control and 90 % of control
same,T/C,"dose: 50.0 mg/kg/injection, schedule: Q01DX005 (ip), vehicle: saline",99 % of control and 91 % of control and 97 % of control
CN(N=O)C(=O)Nc1ccc(C(=O)O)cc1,T/C,"dose: 25.0 mg/kg/injection, schedule: Q01DX009 (ip), vehicle: saline with Tween-80",181 % of control
same,T/C,"dose: 25.0 mg/kg/injection, schedule: Q04DX003 (ip), vehicle: saline with Tween-80",155 % of control
same,T/C,[12],181 % of control
same,T/C,"dose: 50.0 mg/kg/injection, schedule: Q04DX003 (ip), vehicle: saline with Tween-80",180 % of control
same,T/C,"dose: 66.0 mg/kg/injection, schedule: Q04DX003 (ip), vehicle: saline with Tween-80",159 % of control
same,T/C,[4],172 % of control and 200 % of control
c1ccc2c(SCCCSc3c4ccccc4nc4ccccc34)c3ccccc3nc2c1,T/C,[8],97 % of control
same,T/C,[9],91 % of control
same,T/C,[10],95 % of control
O=C(/C=C/c1ccccc1O)c1ccccc1,T/C,[12],97 % of control
same,T/C,[13],102 % of control
same,T/C,[14],108 % of control
